Assay results: paper PMC5300040 (Environmental Science & Technology, 2016)
Read-outs that look alike come from different tables or passages of the source.

Key:
[1] = test system: liver microsomes from golden Syrian hamsters (male); assay type: in vitro ADME; conditions: male hamster liver microsomes; 50 μM parent PCB, 2 h, 37 °C
[2] = test system: liver microsomes from untreated beagle dogs (female); assay type: in vitro ADME; conditions: female dog liver microsomes; 50 μM parent PCB, 2 h, 37 °C
[3] = test system: liver microsomes prepared from male Sprague–Dawley rats; assay type: in vitro ADME, rat; conditions: for relative level of dihydroxylated metabolite: all rat liver microsomal preparations except PB-pretreated rats, GC-μECD; for metabolite detection by GC–MS: 50 μM parent PCB, 2 h, 37 °C
[4] = test system: dog CYP2B11; conditions: cited from earlier work
[5] = test system: recombinant rat CYP2B1; conditions: cited from earlier work
[6] = test system: liver microsomes from Cynomolgus monkeys (male); assay type: in vitro ADME; conditions: monkey liver microsomes, compared with other liver microsomes
[7] = test system: liver microsomes from rats, dogs, guinea pigs, hamsters, monkeys and rabbits; assay type: in vitro ADME; conditions: for formation of monohydroxylated metabolite, GC–MS: all microsomal preparations investigated; for status of metabolite in incubations with liver microsomes of different species: dogs, guinea pigs, hamsters, monkeys, rabbits, all incubations
[8] = Racemization of OH-PCB metabolites; assay type: physicochemical; conditions: CD column, GC-μECD; 300 °C for 2 h; methylated derivatives
[9] = microsomes from isoniazid (INH) pretreated rats
[10] = microsomes from phenobarbital (PB) pretreated rats

SMILES | relative level of dihydroxylated metabolite [3] | metabolite detection by GC–MS [3, 9] | metabolite detection by GC–MS [3, 10] | formation of monohydroxylated metabolite, GC–MS [7] | status of metabolite in incubations with liver microsomes of different species [7] | EF after racemization [8] | further results
Oc1cc(Cl)c(-c2cc(Cl)c(Cl)cc2Cl)c(Cl)c1O [diOH-PCB 102, 3′,4′-dihydroxy-2,2′,4,5,6′-pentachlorobiphenyl] | minor metabolites | formed | formation |  |  |  | metabolite detection by GC–MS [1]: formed; metabolite detection by GC–MS [2]: formed; metabolite detection by GC–MS ([3]; microsomes from corn oil (CO) treated rats): formed
Oc1cc(Cl)c(-c2ccc(Cl)cc2Cl)c(Cl)c1O [diOH-PCB 51, 3′,4′-dihydroxy-2,2′,4,6′-tetrachlorobiphenyl] | minor metabolites | low levels | minor |  |  |  | 
Oc1cc(Cl)c(Cl)c(-c2c(Cl)ccc(Cl)c2Cl)c1Cl [5-OH-PCB 136, 2,2′,3,3′,6,6′-hexachlorobiphenyl-5-ol] |  |  |  |  |  |  | metabolite formed [4]: 4,5-dihydroxylated PCB 136 metabolite; metabolite formed [5]: 4,5-dihydroxylated PCB 136 metabolite
Oc1ccc(Cl)c(-c2ccc(Cl)cc2Cl)c1Cl [OH-PCB 51, 2,2′,4,6′-tetrachlorobiphenyl-3′-ol] |  |  | major metabolite | formed | major metabolite | 0.46 ± 0.01 | extent of enantiomeric enrichment (EF) [6]: near racemic; rank order of EF values across species ([7]; EF = area E1/(area E1 + area E2), Chirasil-Dex column): monkey > rabbit ∼ guinea pig > hamster > rat > dog; extent of enantiomeric enrichment, comparison of congeners ([3]; incubations with rat liver microsomes): more pronounced enantiomeric enrichment compared to OH-PCB 102
Oc1ccc(Cl)c(-c2cc(Cl)c(Cl)cc2Cl)c1Cl [OH-PCB 102, 2,2′,4,5,6′-pentachlorobiphenyl-3′-ol] |  |  | major metabolite | detected | major metabolite | 0.49 ± 0.01 | 
